# Source: patent US20050222408A1, “Heterocyclic amides with anti-tuberculosis activity” (priority 2003, published 2005)
# Read-outs that look alike come from different tables or passages of the source.
# What was measured:
# [1] = Maximum Tolerated Dose (MTD), single oral dose in mice; settings: escalating dose 100, 300 and 500 mg/kg by oral gavage
# Experimental: An assay for Maximum Tolerated Dose (MTD) was also utilized. […] Three different concentrations are tested, generally at 100, 300 and 500 mg/kg. The latter dose is about twice to five times the dose used for efficacy testing of the compound in mice. After 7 days of observation the mice are sacrificed and the organs are studied for any adverse effects. In case of abnormalities the organs are fixed in formalin and given for extensive pathology analysis.
# Maximum tolerated dosing was performed on these selected compounds. An escalating dose of drug (100, 300 and 500 mg/kg) was given to mice by oral gavage.
# [2] = target: UDP-galactose mutase (Glf) (Mycobacterium tuberculosis, UniProt P9WIQ1); experiment: Microtitre plate based screen of Glf (enzymatic inhibition); type: biochemical
# Vero cells = experiment: Cytotoxicity, alamar blue assay against Vero cells; type: cell-based; settings: for ToxIC50: Table 1, Vero cells, alamar blue, unit not given
# M. tuberculosis = type: in vivo, mice; settings: for viable M. tuberculosis, Spleen ± SEM: untreated controls 6.7 ± 0.16; for viable M. tuberculosis, Lungs ± SEM: untreated controls 8.0 ± 0.17
# M. tuberculosis H37Ra = experiment: MIC against M. tuberculosis H37Ra, micro broth dilution in microtiter plates; settings: M. tuberculosis H37Ra; for TB MIC: Table 1, 7 days at 37° C., MIC90
# Sequence of UDP-galactose mutase (Glf) (P9WIQ1 whole entry): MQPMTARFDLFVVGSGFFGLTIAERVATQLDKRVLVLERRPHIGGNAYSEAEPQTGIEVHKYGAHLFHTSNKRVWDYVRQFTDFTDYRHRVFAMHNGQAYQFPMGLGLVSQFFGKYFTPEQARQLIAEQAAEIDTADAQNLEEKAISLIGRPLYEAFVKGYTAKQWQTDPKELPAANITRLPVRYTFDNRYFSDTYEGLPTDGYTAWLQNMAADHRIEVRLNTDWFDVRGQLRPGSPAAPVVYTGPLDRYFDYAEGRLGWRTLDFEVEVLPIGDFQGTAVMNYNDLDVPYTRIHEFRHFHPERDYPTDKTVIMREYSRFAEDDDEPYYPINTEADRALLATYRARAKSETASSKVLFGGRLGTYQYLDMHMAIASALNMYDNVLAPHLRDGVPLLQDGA
SMILES,"Maximum tolerated dosing, effect observed [1]",Glf inhibition [2],ToxIC50 (Vero cells),"viable M. tuberculosis, Spleen ± SEM (M. tuberculosis; 300 mg/kg)","viable M. tuberculosis, Lungs ± SEM (M. tuberculosis; 300 mg/kg)",TB MIC (M. tuberculosis H37Ra) [µg/mL],"viable M. tuberculosis, Spleen ± SEM (M. tuberculosis; 150 mg/kg)","viable M. tuberculosis, Lungs ± SEM (M. tuberculosis; 150 mg/kg)",anti-tuberculosis MIC activity (M. tuberculosis H37Ra),"IC50 (Vero cells; Chlorocebus sabaeus, Vero, read-out: ToxIC50) [µg/mL]",selectivity index (SI) (Vero cells; summary b276),oral activity against M. tuberculosis in the mouse infection model (M. tuberculosis; oral)
"O=C(Nc1cccc(Cl)c1)c1ccc([N+](=O)[O-])o1 [Compound 10, 5-Nitro-furan-2-carboxylic acid(3-chloro-phenyl)-amide]",no effect at the maximum dose,best inhibitors of Glf,6.86,7.3 ± 0.12,8.3 ± 0.21,–,–,–,–,–,–,–
"O=C(Nc1cccc(F)c1)c1ccc([N+](=O)[O-])o1 [Compound 12, 5-Nitro-furan-2-carboxylic acid(3-fluoro-phenyl)-amide]",no effect at the maximum dose,–,9.29,7.0 ± 0.11,8.4 ± 0.24,0.8,–,–,–,–,–,–
"COc1cccc(NC(=O)c2ccc([N+](=O)[O-])o2)c1 [Compound 13, 5-Nitro-furan-2-carboxylic acid(3-methoxy-phenyl)-amide]",some pathology at 500 mg/kg,best inhibitors of Glf,18.63,–,–,0.8,7.2 ± 0.07,8.0 ± 0.3,–,–,–,–
"COc1ccc(CNC(=O)c2ccc([N+](=O)[O-])o2)cc1OC [Compound 23, 5-Nitro-furan-2-carboxylic acid 3,4-dimethoxy-benzylamide]",no effect at the maximum dose,–,–,6.0 ± 0.19,6.5 ± 0.25,–,–,–,as active as ethambutol and streptomycin,18.2,90.9,significant oral activity
